Laboratory results reported in patent US20170096443A1, “PLATINUM(IV) COMPOUNDS AND METHODS OF MAKING AND USING SAME” (UNIVERSITY OF GEORGIA RESEARCH FOUNDATION, INC., priority 2014, published 2017).

Key:
DU145 cells = test: MTT cytotoxicity assay in DU145 cells; format: cell-based, Human; conditions: 72 hours incubation, read-out: IC50 in prostate cancer cells, DU145
Description: (§1) Cisplatin and ADIBO-COOH were used as controls. […] Cell Lines and Cell Culture. […] Cytotoxicity Analysis of Platin-CLK by MTT Assay. […] The media was changed and increasing concentrations of each compound was added. […] Final working solutions were prepared in culture media (RPMI) by keeping total DMSO percentage <1%. These were then incubated for 72 hours. […] The IC50 values were reported at ±99% confidence intervals.

PC3 cells = test: MTT cytotoxicity assay in PC3 cells; format: cell-based, Human; conditions: 72 hours incubation, read-out: IC50 in prostate cancer cells, PC3
Description: as §1

SMILES	IC50 (DU145 cells)	IC50 (PC3 cells)
O=C(O)CCC(=O)NCCC(=O)N1Cc2ccccc2C#Cc2ccccc21 [ADIBO-COOH]	284 ± 72 µM	> 200 µM
N.N.[Cl][Pt][Cl] [Cisplatin, Cis-diamminedichloroplatinum(II)]	6 ± 0.9 µM	12 ± 2 µM
